# Laboratory results taken from patent US20020095695A1, “Tillering promoter for plant and method for tillering promotion of plant” (AJINOMOTO CO., INC., priority 2000, published 2002).
# Assays:
# Assay type in all cases: in vivo
# [1] = tested on: grass (a European grass: bent grass); test: Effect of proline on hydroponic cultivation of grass (2), proline concentration changed stepwise; conditions: 40th day
# Procedure: Seedlings of grass (a European grass: bent grass) were raised and divided into six groups of A to F, and hydroponic cultivation was carried out (Table 3 shown below). At that time, inosine was added to the hydroponic media for all the groups in such amount that the concentration became 2 ppm in each hydroponic medium. Group A was the control. In the groups of B to F, proline was applied onto leaf surfaces once a week with the concentration being changed stepwise.
# (§1) Furthermore, five average stocks which had not been withered were sampled from each group and examined.
# [2] = tested on: lawn grass (a European grass; bent grass); test: Effect of proline on hydroponic cultivation of lawn grass (1); conditions: for Average leaf length / Average root length / Number of leaves per one root / Number of tillering per one root / Total weight of living plants per five roots: 5 roots per group, inosine 2 ppm in hydroponic medium, proline 20 ppm onto leaf surfaces once a week; for tillering promotion (observation): confirmation on the 40th day, inosine 2 ppm in medium, proline 20 ppm foliar once a week
# Procedure: Seedlings of grass (a European grass; bent grass) were raised and divided into four groups of A to D, and hydroponic cultivation was carried out (Table 1 shown below). Concerning Groups B and D, inosine was added to each hydroponic medium in such amount that the concentration became 2 ppm. Concerning Groups C and D, proline was applied onto leaf surfaces once a week in an amount of 20 ppm. Group A was the control. […] Furthermore, five average stocks which had not been withered were sampled from each group and examined.
# [3] = tested on: grass (a European grass: bent grass); test: Effects of proline, glutamine, arginine and urea on hydroponic cultivation of grass; conditions: for Average leaf length / Average root length / Number of leaves per one root / Number of tillering per one root / Total weight of living plants per five roots / number of leaves and total weight of the living plant, in words: 40th day; for Average leaf length / Average root length / Number of leaves per one root / Number of tillering per one root / Total weight of living plants per five roots: 5 roots per group, proline 20 ppm, others at the same nitrogen amount; for number of leaves and total weight of the living plant, in words: five average stocks per group
# Procedure: Seedlings of grass (a European grass: bent grass) were raised and divided into five groups of A to E, and hydroponic cultivation was carried out (Table 2 shown below). Group A was the control. Concerning Group B, proline was applied onto leaf surfaces once a week in an amount of 20 ppm.
# as §1
# [4] = group B, 2 ppm, inosine 2 ppm in hydroponic medium of all groups, foliar once a week
# [5] = 0.2% proline foliar once a week, inosine 2 ppm in hydroponic medium
# [6] = 2.0% proline foliar once a week, inosine 2 ppm in hydroponic medium
# [7] = 20 ppm proline foliar once a week, inosine 2 ppm in hydroponic medium
# [8] = 200 ppm proline foliar once a week, inosine 2 ppm in hydroponic medium
structure (smiles),measurement,setting,value
"OC[C@H]1O[C@@H](n2cnc3c(O)ncnc32)[C@H](O)[C@@H]1O [Inosine, inosine]",Average leaf length,[1]; [4],24 cm
same,Average root length,[1]; [4],4 cm
same,Number of leaves per one root,[1]; [4],14
same,Number of tillering per one root,[1]; [4],3
same,Total weight of living plants per five roots,[1]; [4],1.04 g
same,Average leaf length,[2]; 40th day,20 cm
same,Average root length,[2]; 40th day,2 cm
same,Number of leaves per one root,[2]; 40th day,7
same,Number of tillering per one root,[2]; 40th day,2
same,Total weight of living plants per five roots,[2]; 40th day,0.40 g
same,tillering promotion (observation),[2],no tillering promotion was observed
"N=C(N)NCCC[C@H](N)C(=O)O [Arginine, arginine]",Average leaf length,[3]; foliar once a week,18 cm
same,Average root length,[3]; foliar once a week,2 cm
same,Number of leaves per one root,[3]; foliar once a week,9
same,Number of tillering per one root,[3]; foliar once a week,3
same,Total weight of living plants per five roots,[3]; foliar once a week,0.51 g
same,"number of leaves and total weight of the living plant, in words",[3],good results
"NC(=O)CC[C@H](N)C(=O)O [Glutamine, glutamine]",Average leaf length,[3]; foliar once a week,18 cm
same,Average root length,[3]; foliar once a week,2 cm
same,Number of leaves per one root,[3]; foliar once a week,11
same,Number of tillering per one root,[3]; foliar once a week,3
same,Total weight of living plants per five roots,[3]; foliar once a week,0.66 g
same,"number of leaves and total weight of the living plant, in words",[3],good results
"NC(N)=O [Urea, urea, reference compound]",Average leaf length,[3]; foliar once a week,15 cm
same,Average root length,[3]; foliar once a week,2 cm
same,Number of leaves per one root,[3]; foliar once a week,6
same,Number of tillering per one root,[3]; foliar once a week,1
same,Total weight of living plants per five roots,[3]; foliar once a week,0.34 g
same,tillering promotion (observation),"[3]; confirmation on the 40th day, foliar once a week, nitrogen amount equal to 20 ppm proline",no tillering promotion was observed
"O=C(O)[C@@H]1CCCN1 [Proline, proline]",Average leaf length,[1]; [5],23 cm
same,Average root length,[1]; [5],5 cm
same,Number of leaves per one root,[1]; [5],14
same,Number of tillering per one root,[1]; [5],3
same,Total weight of living plants per five roots,[1]; [5],0.90 g
same,Average leaf length,[1]; [6],19 cm
same,Average root length,[1]; [6],3 cm
same,Number of leaves per one root,[1]; [6],11
same,Number of tillering per one root,[1]; [6],3
same,Total weight of living plants per five roots,[1]; [6],0.40 g
same,Average leaf length,[1]; [7],24 cm
same,Average root length,[1]; [7],4 cm
same,Number of leaves per one root,[1]; [7],15
same,Number of tillering per one root,[1]; [7],4
same,Total weight of living plants per five roots,[1]; [7],0.95 g
same,Average leaf length,[1]; [8],24 cm
same,Average root length,[1]; [8],5 cm
same,Number of leaves per one root,[1]; [8],24
same,Number of tillering per one root,[1]; [8],4
same,Total weight of living plants per five roots,[1]; [8],1.01 g
same,inhibition of the growth or withering (observation),"[1]; Group F (2.0% proline foliar once a week), inosine 2 ppm in medium",inhibition of the growth or withering was observed
same,"number of leaves and total weight of the living plant, in words","[1]; proline at a concentration of 2 ppm to 0.2%, inosine 2 ppm in medium",good results
same,Average leaf length,[2]; 40th day,22 cm
same,Average root length,[2]; 40th day,1 cm
same,Number of leaves per one root,[2]; 40th day,16
same,Number of tillering per one root,[2]; 40th day,5
same,Total weight of living plants per five roots,[2]; 40th day,0.53 g
same,"growth (root length, leaf length and number, total weight of the living plant, tillering number), in words","[2]; 40th day, five average stocks per group",good growth
same,tillering promotion (observation),[2],tillering promotion was clearly observed
same,Average leaf length,[3]; foliar once a week,14 cm
same,Average root length,[3]; foliar once a week,2 cm
same,Number of leaves per one root,[3]; foliar once a week,17
same,Number of tillering per one root,[3]; foliar once a week,5
same,Total weight of living plants per five roots,[3]; foliar once a week,0.60 g
same,"number of leaves and total weight of the living plant, in words",[3],good results
